The record followed here is PubChem BioAssay (NCI).

What all share (experiment): inhibition of tumour cell growth, NCI panel, 48 h
Assay [1] deals with A498 renal.
The subject of assay [2] is HCT-116 colon.
For assay [3], the system named is HCT-15 colon.
For assay [4], the system named is HS 578T breast.
Assay [5] deals with NCI-H226 lung.
Assay [6] deals with NCI-H460 lung.
Assay [7] has as its system OVCAR-8 ovarian.
For assay [8], the system named is SK-MEL-5 melanoma.
The subject of assay [9] is SNB-75 CNS.
Assay [10] has as its system UO-31 renal.

Where “and” joins values, the source holds several entries; their conditions need not be identical. Equal entries are not always repeated.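 Dose response: 5 concentrations. Exposure: 48 h. Format: 96-well plates. Endpoint: linear interpolation; highest concentration if not reached. Here, GI50 denotes the concentration required for 50% inhibition of growth. TGI: total growth inhibition.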 Some results are limits rather than exact numbers.

Regarding `COc1cc(CNc2ccc(SC)cc2)cc(OC)c1OC`, the TGI in [1] is 79.4 µM and 67.7 µM; in [2], 51.1 µM and 35.4 µM; in assay [3], 57.5 µM and 78.2 µM; in assay [4] it was above 77.7 µM; in assay [5] it was > 100 µM and 84.7 µM; in assay [6], above 100 µM. Further, the TGI is > 92.6 µM and 56 µM in assay [7]; 59.6 µM and 16 µM in [8]; 86.3 µM and 65.5 µM in assay [9]; 83.1 µM and 51.1 µM in assay [10]. In addition, the GI50 in [5] was 26.4 µM and 11.9 µM; in [7], 27.1 µM and 7.69 µM; in assay [8], 11.6 µM and 4.51 µM; in assay [9], 15.7 µM and 6.28 µM.

For `O=[N+]([O-])c1ccc2c(c1)C(c1ccccc1Cl)=Nc1cn[nH]c1N2`, the GI50 in [1] was 8.27 µM; in [2] it was 11.2 µM; in assay [3], 15.3 µM; in assay [4], 7.76 µM; in assay [5], 11.8 µM; in [6], 16.1 µM. In addition, the GI50 in assay [7] is 17.9 µM; in assay [8] it was 11.3 µM; in [9], 0.618 µM; in assay [10], 11.1 µM. Further, the TGI in assay [1] was above 23.3 µM; in assay [2], above 25 µM; in assay [3], above 25 µM; in [4], above 25 µM; in [5] it was above 25 µM; in [6], above 25 µM. The TGI was above 25 µM in assay [7], above 25 µM in assay [8], above 21.2 µM in assay [9] and above 25 µM in assay [10].

As to `Cn1cc(C2=C(c3cn(CCCCCN)c4ccccc34)C(=O)NC2=O)c2ccccc21`, the GI50 in assay [1] was 11.3 µM; in assay [2], 5.85 µM; in [3], 7.01 µM; in assay [4] it was 11.5 µM; in assay [5], above 25 µM; in [6], 9.73 µM. Besides, the GI50 in [7] is 11 µM; in [8] it was 7.46 µM; in [9] it was 1.08 µM; in assay [10] it was 5.52 µM. Further, the TGI in [1] is above 25 µM; in [2], above 16.7 µM; in assay [3], above 25 µM; in [4], above 25 µM; in assay [5], above 25 µM; in assay [6] it was above 25 µM. Also, the TGI is above 25 µM in assay [7], above 19.7 µM in [8], above 25 µM in assay [9] and above 25 µM in [10].
